Data reported in patent publication US20060035969A1, “Novel modulators of the PPAR-type receptors and cosmetic/pharmaceutical compositions comprised thereof” (GALDERMA RESEARCH & DEVELOPMENT, S.N.C., priority 2003, published 2006).

Tests used:
Assay type in all cases: cell-based
PPARγ = biological target: T1, PPARγ (Homo sapiens, UniProt P37231); assay: Cross curve PPAR transactivation test (PPARγ); settings: HeLN cells stably transfected with ERE-βGlob-Luc-SV-Neo and Gal-hPPARγ; cross curves against reference agonist, Schild regression; read-out: PPAR gamma Kd app
T1 construct: It is a handle made for the test, not a second protein
T1 sequence (P37231 238-505 limits assumed): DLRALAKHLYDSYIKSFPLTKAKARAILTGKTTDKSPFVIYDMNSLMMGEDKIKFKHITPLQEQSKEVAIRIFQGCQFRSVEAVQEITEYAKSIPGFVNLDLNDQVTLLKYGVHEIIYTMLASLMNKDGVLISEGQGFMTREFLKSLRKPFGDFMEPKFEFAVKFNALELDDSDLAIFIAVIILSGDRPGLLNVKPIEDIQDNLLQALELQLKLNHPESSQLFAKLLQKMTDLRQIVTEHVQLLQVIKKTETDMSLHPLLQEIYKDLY
Procedure: (§1) The activation of receptors with an agonist (activator) in HeLN cells leads to the expression of a reporter gene, luciferase, which, in the presence of a substrate, generates light. The modulation of the receptors is measured as quantity of luminescence produced after incubating the cells in the presence of a reference agonist. The ligands will displace the agonist from its site. The measurement of the activity is performed by quantification of the light produced. This measurement makes it possible to determine the modulatory activity of the compounds according to the invention by determining the constant which is the affinity of the molecule for the receptor. Since this value can fluctuate according to the basal activity and the expression of the receptor, it is called apparent Kd (KdApp in nM).
(§2) To determine this constant, “cross curves” for the product to be tested against a reference agonist are produced in a 96-well plate: 10 concentrations of the test product plus a concentration 0 are placed in a line, and 7 concentrations of the agonist plus one concentration 0 are placed in a column. This is 88 measurement points for 1 product and 1 receptor. The 8 remaining wells are used for repeatability controls. […]
(§3) The various dilutions of the test products and of the reference ligand are added in an amount of 5 μl per well. […] After 5 minutes, the plates are read by the luminescence reader.

PPARδ = biological target: T2, PPARδ (Homo sapiens, UniProt Q03181); assay: Cross curve PPAR transactivation test (PPARδ); settings: HeLN cells stably transfected with ERE-βGlob-Luc-SV-Neo and Gal-hPPARδ; cross curves against reference agonist, Schild regression; read-out: PPAR delta Kd app
T2 construct: It is a handle made for the test, not a second protein
T2 sequence (Q03181 211-441 limits assumed): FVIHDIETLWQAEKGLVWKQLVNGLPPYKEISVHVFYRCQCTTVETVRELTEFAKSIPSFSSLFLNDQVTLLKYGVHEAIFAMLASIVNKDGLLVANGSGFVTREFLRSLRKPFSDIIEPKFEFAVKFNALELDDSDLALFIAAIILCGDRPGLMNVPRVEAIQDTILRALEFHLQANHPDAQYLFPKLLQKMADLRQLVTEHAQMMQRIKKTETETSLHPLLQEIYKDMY
Procedure: as §1, §2, §3

PPARα = biological target: T3, PPARα (Homo sapiens, UniProt Q07869); assay: Cross curve PPAR transactivation test (PPARα); settings: HeLN cells stably transfected with ERE-βGlob-Luc-SV-Neo and Gal-hPPARα; cross curves against reference agonist, Schild regression; read-out: PPAR alpha Kd app
T3 construct: It is a handle made for the test, not a second protein
T3 sequence (Q07869 200-468 limits assumed): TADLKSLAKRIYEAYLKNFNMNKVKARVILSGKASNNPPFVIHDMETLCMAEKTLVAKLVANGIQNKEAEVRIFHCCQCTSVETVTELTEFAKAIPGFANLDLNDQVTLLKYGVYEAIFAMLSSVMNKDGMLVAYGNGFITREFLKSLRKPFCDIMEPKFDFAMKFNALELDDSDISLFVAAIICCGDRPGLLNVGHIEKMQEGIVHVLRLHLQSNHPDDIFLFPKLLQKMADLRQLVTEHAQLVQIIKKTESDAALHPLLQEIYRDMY
Procedure: as §1, §2, §3

Kd (PPARγ) [nM]	Kd (PPARδ) [nM]	Kd (PPARα) [nM]	Compound
30	15	250	O=C(O)Cc1cccc(Sc2ccc(N(CCc3ccccc3)C(=O)NC3CCCCC3)cc2)c1 [Example 18b, {3-[4-(3-Cyclohexyl-1-phenethylureido)phenylsulfanyl]phenyl}acetic acid]
500	60		CCCCCCCN(C(=O)NCCc1ccccc1)c1cccc(Sc2cccc(CC(=O)O)c2)c1 [Example 25b, {3-[3-(1-Heptyl-3-phenethylureido)phenylsulfanyl]phenyl}acetic acid]
